The record followed here is patent US20240018125A1, “CYCLIC ISOTHIOUREA DERIVATIVES AS CXCR4 MODULATORS” (ERMIUM THERAPEUTICS, priority 2020, published 2024).

The structures appear in SMILES notation. Counter-ions that a name gives are not always drawn. Some results are limits rather than exact numbers.

This assay deals with peripheral blood mononuclear cells (PBMCs) from healthy donors. Kind of assay: IFN production by R848-activated PBMCs, quantified with twINNE luciferase reporter cell line. Format: cell-based, human. The note with it: Homo sapiens, PBMC; read-out: IC50 of anti-inflammatory activity (IFN production by activated PBMCs). The procedure:
The blood from healthy donors was obtained from “Etablissement Français du Sang” (convention #19/EFS/029), Paris, France.
In vitro experiments were performed using human peripheral blood mononuclear cells (PBMCs) isolated by density centrifugation from peripheral blood leukocyte separation medium, lymphoprep (Stemcell Technologies).
PBMCs were cultured in RPMI 1640 (Sigma-Aldrich, MO, USA) containing 10% heat-inactivated fetal bovine serum (Sigma-Aldrich, MO, USA) at 37° C./5% CO2.
The PBMCs used herein were prepared as described in part A “immune cells preparation”, above. PBMCs were seeded at 4.10^6/mL. Cells were pre-treated with different concentration of examples according to the invention. Cells were then stimulated with the TLR7/8 agonist resiquimod—R848 (Sigma-Aldrich, MO, USA) at 5 μg/mL.
To quantify the secretion of functional IFN, a biological assay based on a stable cell line where luciferase reporter gene is controlled by five Interferon-Stimulated Response Elements (twINNE cell line) was used. First, supernatants of R848-stimulated PBMCs (see part B above) were harvested after 24 h of stimulation and frozen at −20° C. for storage. Then, supernatants were dispensed in culture wells of a 96-well plate containing 35.103 twINNE cells per well in Dulbecco's Modified Eagle's Medium supplemented with 10% Foetal Bovine Serum, 100 U/mL Penicillin and 100 μg/mL Streptomycin (1% Pen-Strep) and 1 mM glutamine (Sigma-Aldrich, MO, USA) at 37° C./5% CO2. After 24 h of culture, luciferase activity was determined by adding 60 μL of Bright-Glo reagents (Promega, Wisconsin, USA) to culture wells and measuring bioluminescence with EnSpire Multimode Plate Reader (PerkinElmer, Massachusetts, USA). When stated, for IC50 calculation, dose-response curves fitted using the nonlin fit (variable slope) analysis in GraphPad Prism software (GraphPad Software, Califronia, USA).
IFN production was quantified (as specified in Materials and Methods, part C “quantification of interferon secretion”) using twINNE reporter cell line.
Take `CCCCC1CN=C(SCC2=CSC3=Nc4ccccc4CN23)N1` (centres unmarked) [Example 29, 3-(((5-butyl-4,5-dihydro-1H-imidazol-2-yl)thio)methyl)-5H-thiazolo[2,3-b]quinazoline dihydrochloride]: the IC50 was at most 10 µM. With `CC1(c2ccccc2)CN=C(SCC2=CSC3=NCc4ccccc4CN23)N1` (centres unmarked) [Example 30, 3-(((5-methyl-5-phenyl-4,5-dihydro-1H-imidazol-2-yl)thio)methyl)-5,10-dihydrobenzo[e]thiazolo[3,2-a][1,3]diazepine dihydrochloride], the IC50 is at most 10 µM. In the case of `C1=C(CSC2=N[C@@H]3CCCC[C@H]3N2)N2Cc3ccccc3N=C2S1` [Example 32, 3-((((3aR,7aR)-3a,4,5,6,7,7a-hexahydro-1H-benzo[d]imidazol-2-yl)thio)methyl)-5H-thiazolo[2,3-b]quinazoline dihydrochloride], the IC50 is at most 10 µM.

With `C1=C(CSC2=NCC(Cc3ccccc3)N2)N2Cc3ccccc3N=C2S1` (centres unmarked) [Example 33, 3-(((5-benzyl-4,5-dihydro-1H-imidazol-2-yl)thio)methyl)-5H-thiazolo[2,3-b]quinazoline dihydrochloride], the IC50 is at most 10 µM.

As for `COc1ccc(CC2(C)CN=C(SCC3=CSC4=NCc5ccccc5CN34)N2)cc1` (centres unmarked) [Example 34, 3-(((5-(4-methoxybenzyl)-5-methyl-4,5-dihydro-1H-imidazol-2-yl)thio)methyl)-5,10-dihydrobenzo[e]thiazolo[3,2-a][1,3]diazepine dihydrochloride], the IC50 is at most 10 µM. Consider `C1=C(CSC2=NCc3ccccc3N2)N2CCc3ccccc3N=C2S1` [Example 35, 3-(((3,4-dihydroquinazolin-2-yl)thio)methyl)-5,6-dihydrobenzo[d]thiazolo[3,2-a][1,3]diazepine dihydrochloride], for which the IC50 is at most 10 µM. With `CN1CCN=C1SCC1=CSC2=Nc3ccccc3CN12` [Example 36, 3-(((1-methyl-4,5-dihydro-1H-imidazol-2-yl)thio)methyl)-5H-thiazolo[2,3-b]quinazoline dihydrochloride], the 50% inhibitory concentration (IC50) was at most 10 µM. Take `CCCCN1CCN=C1SCC1=CSC2=NCc3ccccc3CN12` [Example 37, 3-(((1-butyl-4,5-dihydro-1H-imidazol-2-yl)thio)methyl)-5,10-dihydrobenzo[e]thiazolo[3,2-a][1,3]diazepine dihydrochloride]: the half-maximal inhibitory concentration (IC50) is at most 10 µM. The figure for `CC1(c2ccccc2)CN2C(CSC3=NCc4ccccc4N3)=CSC2=N1` (centres unmarked) [Example 38, 3-(((3,4-dihydroquinazolin-2-yl)thio)methyl)-6-methyl-6-phenyl-5,6-dihydroimidazo[2,1-b]thiazole dihydrochloride] is at most 10 µM; for `Clc1ccc2c(c1)CN=C(SCC1=CSC3=Nc4ccccc4CN13)N2` [Example 39, 3-(((6-chloro-1,4-dihydroquinazolin-2-yl)thio)methyl)-5H-thiazolo[2,3-b]quinazoline dihydrochloride] it is at most 10 µM. For `Clc1ccc2c(c1)CN1C(CSC3=N[C@@H]4CCCC[C@H]4N3)=CSC1=N2` [Example 40, 7-chloro-3-((((3aR,7aR)-3a,4,5,6,7,7a-hexahydro-1H-benzo[d]imidazol-2-yl)thio)methyl)-5H-thiazolo[2,3-b]quinazoline dihydrochloride], the IC50 is at most 10 µM.

In the case of `CCCCC1CN=C(SCC2=CSC3=Nc4ccc(Cl)cc4CN23)N1` (centres unmarked) [Example 41, 3-(((5-butyl-4,5-dihydro-1H-imidazol-2-yl)thio)methyl)-7-chloro-5H-thiazolo[2,3-b]quinazoline dihydrochloride], the IC50 was at most 10 µM. As for `Clc1ccc2c(c1)N=C1SC=C(CSC3=NCc4ccccc4N3)N1C2` [Example 42, 8-chloro-3-(((1,4-dihydroquinazolin-2-yl)thio)methyl)-5H-thiazolo[2,3-b]quinazoline dihydrochloride], the IC50 was at most 10 µM. `C1=C(CSC2=NCc3ccccc3N2)N2C(=Nc3ccccc3C2c2ccccc2)S1` (centres unmarked) [Example 43, 3-(((3,4-dihydroquinazolin-2-yl)thio)methyl)-5-phenyl-5H-thiazolo[2,3-b]quinazoline dihydrochloride]: the IC50 was at most 10 µM.
